{
  "source": "ChEMBL document CHEMBL5032514",
  "about": "“Portobelamides A and B and Caciqueamide, Cytotoxic Peptidic Natural Products from a Caldora sp. Marine Cyanobacterium” (2021)",
  "tested_on": "NCI-H460",
  "test": "Cytotoxicity against human NCI-H460 cells assessed as cell survival at 0.9 uM measured after 48 hrs by MTT assay",
  "format": "functional",
  "details": "read-out: Activity",
  "data": [
    {"smiles": "C#CCCC[C@@H]1NC(=O)[C@H](C(C)C)N(C)C(=O)[C@H](COC)N(C)C(=O)[C@H](C(C)C)NC(=O)[C@H](COC)N(C)C(=O)[C@H](C)N(C)C(=O)[C@H](C(C)C)N(C)C(=O)[C@@H]2CCCN2C(=O)[C@H](C(C)C)NC(=O)[C@H]([C@@H](C)CC)N(C)C(=O)[C@H](C(C)C)N(C)C(=O)[C@@H](C(C)C)OC(=O)[C@H]1C", "values": [
      {"measurement": "viability at 0.9 µM", "value": 97, "unit": "%"}
    ]},
    {"smiles": "C#CCCC[C@@H]1NC(=O)[C@H](C(C)C)N(C)C(=O)[C@H](C)N(C)C(=O)[C@H](COC)NC(=O)[C@H](C(C)C)N(C)C(=O)[C@H](CC(C)C)N(C)C(=O)[C@@H]2CCCN2C(=O)[C@H](C(C)C)NC(=O)[C@H](COC)N(C)C(=O)[C@H](C(C)C)NC(=O)[C@@H](C(C)C)OC(=O)[C@H]1C", "values": [
      {"measurement": "viability at 0.9 µM", "value": 33, "unit": "%"}
    ]},
    {"smiles": "C/C=C(\\NC(=O)C(NC(=O)C(C)C(O)CCCCCCCCCCCCC(=O)CCCC)C(C)O)C(=O)NC(C)c1nc(C(=O)NC(C)C(C)=O)cs1", "note": "(stereo not drawn)", "values": [
      {"measurement": "viability at 0.9 µM", "value": 78, "unit": "%"}
    ]}
  ]
}
